Laboratory results: patent EP4439067A1, “METHOD FOR IDENTIFYING REACTIVE OXYGEN SPECIES” (Centre National de la Recherche Scientifique, priority 2023, dated 2024)

Key:
HeLa cells [1] = assay: Oxygen consumption rates (OCR), Seahorse XF24 flux analyser; format: cell-based, human; settings: for effect on OCR / mitochondrial respiration: rotenone 1 µM plus antimycin A 1 µM, siOPA1- and siCtrl-transfected cells; for oxygen consumption due to mitochondrial respiration: shown by rotenone plus antimycin, both siOPA1- and siCtrl-transfected cells
Excerpt: (§1) The inventors assessed oxygen consumption rates (OCR), a direct measure of oxidative phosphorylation activity, and extracellular acidification rates (ECAR), representative of glycolysis, since it accounts for approximately 80% of acidification (Wu et al., 2007, Xie et al., 2009), using the Seahorse XF24 flux analyser (Seahorse Bioscience Inc, North Billerica, MA, USA). Basal respiration was 38% lower in siOPA1-transfected HeLa cells than siCtrl-treated cells (Figure 1). Furthermore, ATP-linked respiration measured in the presence of oligomycin, which inhibits ATP synthase, was reduced by 40%. The maximal OCR measured in the presence of the protonophore FCCP, which uncouples oxidation and phosphorylation, was reduced by 58%. […] Indeed, citrate synthase activity and quantity and HSP60, VDAC, and TOM20 levels were unchanged (Figures 18 and 19).
Oxygen consumption rates (OCR) and extracellular acidification rates (ECAR) were measured using the XF24 Extracellular Flux Analyser (Seahorse Bioscience, North Billerica, MA). HeLa cells (15.103) transfected with siCtrl or siOPA1 were plated on XF24 microplates three days before OCR measurements. Dual-analyte sensor cartridges were soaked in XF Calibrant Solution (Seahorse Biosciences) in 24-well cell-culture microplates overnight at 37°C to hydrate. Approximately one hour prior to experimentation, injection ports on the sensor cartridge were filled with oligomycin (1 µM), Carbonyl cyanide 4-(trifluoromethoxy) phenylhydrazone (FCCP) (1 µM), and rotenone (1 µM) plus antimycin A (1 µM). Plates were then loaded into the XF24 instrument for calibration. For measuring oxygen consumption, the DMEM growth media of HeLa cells was replaced by DMEM supplemented with NaCl (143 mM), Phenol Red (3 mg/ml), glucose (10 mM), glutamine (2 mM), and pyruvate (2 mM) at pH 7.4, and the plates maintained at 37°C 1 h prior to experimentation. Plates were then loaded into the Seahorse XF24 analyser following the manufacturer's instructions.

HeLa cells [2] = assay: Extracellular acidification rates (ECAR), Seahorse XF24 flux analyser; format: cell-based, human; settings: 1 µM, both siCtrl- and siOPA1-transfected cells
Excerpt: as §1
Oxygen consumption rates (OCR) and extracellular acidification rates (ECAR) were measured using the XF24 Extracellular Flux Analyser (Seahorse Bioscience, North Billerica, MA). HeLa cells (15.103) transfected with siCtrl or siOPA1 were plated on XF24 microplates three days before OCR measurements. Dual-analyte sensor cartridges were soaked in XF Calibrant Solution (Seahorse Biosciences) in 24-well cell-culture microplates overnight at 37°C to hydrate. […]

Molecule | effect on OCR / mitochondrial respiration (HeLa cells [1]) | effect on OCR / mitochondrial respiration (HeLa cells [1]; listed as antimycin) | oxygen consumption due to mitochondrial respiration (HeLa cells [1]) | effect on OCR / mitochondrial respiration (HeLa cells [1]; listed as Rotenone) | effect of oligomycin injection on ECAR (HeLa cells [2])
antimycin A | inhibited mitochondrial respiration | considerably decreased | more than 95% |  | 
C=C(C)[C@H]1Cc2c(ccc3c2O[C@@H]2COc4cc(OC)c(OC)cc4[C@@H]2C3=O)O1 [rotenone] | inhibited mitochondrial respiration |  | more than 95% | considerably decreased | 
CC[C@H]1/C=C/C=C/C[C@@H](C)[C@H](O)[C@@](C)(O)C(=O)[C@@H](C)[C@H](O)[C@@H](C)C(=O)[C@@H](C)[C@H](O)[C@@H](C)/C=C/C(=O)O[C@@H]2[C@H](C)[C@H](CC1)O[C@]1(CC[C@H](C)[C@H](C[C@@H](C)O)O1)[C@H]2C [oligomycin] |  |  |  |  | increased
